One may read the pEC50 as −log10 of the EC50, conventionally taken in molar units.

We go through 18 compounds from patent US10556907B2 (AbbVie Inc., priority 2015, dated 2020).

Assay in all cases: Method 1: intracellular Ca2+ release (FLIPR, Calcium 5) in recombinant CHO-K1 cells
Format in all cases: cell-based

One experiment deals with T1, human S1PR1 receptor (Homo sapiens, UniProt P21453).
T1 construct: host or cells: CHO-K1
To be noted: (1): determined with method 1; read-out: S1P1 EC50. The method in brief: (§1)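 CHO-K1 cells co-expressing the receptor, aequorin and Gq/i5 were loaded with Calcium 5 dye 1 h at 37° C, then held 45 min at RT. Serially diluted compounds added in HBSS/20 mmol/L Hepes/2.5 mmol/L probenecid/0.1% BSA pH 7.4. FLIPR Tetra fluorescence, normalized to phospho-fingolimod, fitted for EC50.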

Another experiment concerns the target T2, human S1PR4 receptor (Homo sapiens, UniProt O95977).
T2 construct: host or cells: CHO-K1
T2 sequence (O95977 1-384): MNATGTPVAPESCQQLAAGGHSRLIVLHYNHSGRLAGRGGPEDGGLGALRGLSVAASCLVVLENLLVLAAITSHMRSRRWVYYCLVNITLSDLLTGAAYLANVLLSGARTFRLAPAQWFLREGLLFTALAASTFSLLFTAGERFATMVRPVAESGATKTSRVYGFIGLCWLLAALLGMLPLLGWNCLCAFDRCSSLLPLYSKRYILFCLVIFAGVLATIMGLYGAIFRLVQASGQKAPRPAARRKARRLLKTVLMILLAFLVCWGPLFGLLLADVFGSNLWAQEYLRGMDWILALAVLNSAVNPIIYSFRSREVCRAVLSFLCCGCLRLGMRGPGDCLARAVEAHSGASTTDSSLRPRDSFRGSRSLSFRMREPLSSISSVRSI
To be noted: (1): determined with method 1; read-out: S1P4 EC50. The method in brief:
as §1

Another experiment deals with T3, human S1PR5 receptor (Homo sapiens, UniProt Q9H228).
T3 construct: host or cells: CHO-K1
To be noted: agonist potency, determined with method 1 (symbols A-D); read-out: S1P5 EC50 range. The method in brief:
as §1

Molecules are shown by their SMILES. pEC50: −log10 of the molar value. Counter-ions that a name gives are not always drawn.

T1 sequence (P21453 whole entry): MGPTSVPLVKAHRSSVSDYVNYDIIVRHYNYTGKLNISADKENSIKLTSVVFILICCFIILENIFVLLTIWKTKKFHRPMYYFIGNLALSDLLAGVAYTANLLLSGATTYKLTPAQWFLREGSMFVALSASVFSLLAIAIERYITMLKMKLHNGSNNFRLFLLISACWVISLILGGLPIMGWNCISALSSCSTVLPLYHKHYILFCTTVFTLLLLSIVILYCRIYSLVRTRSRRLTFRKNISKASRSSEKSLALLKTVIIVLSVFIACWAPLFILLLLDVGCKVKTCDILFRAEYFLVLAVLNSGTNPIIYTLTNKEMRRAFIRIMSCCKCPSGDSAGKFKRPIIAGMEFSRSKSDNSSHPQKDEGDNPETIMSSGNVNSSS
T3 sequence (Q9H228 whole entry): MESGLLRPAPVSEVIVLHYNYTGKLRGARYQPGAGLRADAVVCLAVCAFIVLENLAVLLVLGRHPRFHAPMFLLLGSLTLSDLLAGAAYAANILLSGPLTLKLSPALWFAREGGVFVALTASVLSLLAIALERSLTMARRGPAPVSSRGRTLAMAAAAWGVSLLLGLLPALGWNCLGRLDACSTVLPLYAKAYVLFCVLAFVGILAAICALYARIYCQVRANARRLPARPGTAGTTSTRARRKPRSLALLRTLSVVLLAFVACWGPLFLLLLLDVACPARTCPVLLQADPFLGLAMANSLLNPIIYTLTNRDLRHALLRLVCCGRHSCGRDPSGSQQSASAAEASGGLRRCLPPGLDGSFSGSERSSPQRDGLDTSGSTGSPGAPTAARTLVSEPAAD

`Cc1cc(-c2ncc3c(n2)CCN(CC(C)CC(=O)O)C3)ccc1OCc1ccccc1C(F)(F)F` (stereo not drawn) [Compound 309, 3-methyl-4-[2-[3-methyl-4-[[2-(trifluoromethyl)phenyl]methoxy]phenyl]-7,8-dihydro-5H-pyrido[4,3-d]pyrimidin-6-yl]butanoic acid 2,2,2-trifluoroacetic acid salt]: the pEC50 at human S1PR1 receptor is under 6.00; at human S1PR4 receptor it was under 6.00; at human S1PR5 receptor, 6.00 to 7.00.

For the compound `Cc1ccc(COc2ccc(-c3ncc4c(n3)CCN(CC(C)CC(=O)O)C4)cc2C)c(C)c1` (stereo not drawn) [Compound 305, 4-[2-[4-[(2,4-dimethylphenyl)methoxy]-3-methyl-phenyl]-7,8-dihydro-5H-pyrido[4,3-d]pyrimidin-6-yl]-3-methyl-butanoic acid 2,2,2-trifluoroacetic acid salt], the pEC50 is under 6.00 on human S1PR1 receptor, under 6.00 on human S1PR4 receptor and 6.00 to 7.00 on human S1PR5 receptor.

Take `CC(CC(=O)O)CN1CCc2nc(-c3ccc(/C=C/c4ccc(Cl)cc4)cc3)ncc2C1` (stereo not drawn) [Compound 297, 4-(2-(4-(4-chlorostyryl)phenyl)-7,8-dihydropyrido[4,3-d]pyrimidin-6(5H)-yl)-3-methylbutanoic acid]: the negative-log EC50 (pEC50) on human S1PR1 receptor is under 6.00; on human S1PR4 receptor it was under 6.00; at human S1PR5 receptor, 6.00 to 7.00.

Take `Cc1cc(-c2ncc3c(n2)CCN(CC(C)CC(=O)O)C3)ccc1OCc1cccc(F)c1F` (stereo not drawn) [Compound 256, 4-(2-(4-((2,3-difluorobenzyl)oxy)-3-methylphenyl)-7,8-dihydropyrido[4,3-d]pyrimidin-6(5H)-yl)-3-methylbutanoic acid]: the pEC50 at human S1PR1 receptor is under 6.00; at human S1PR4 receptor it was under 6.00; on human S1PR5 receptor it was over 8.00.

In the case of `Cc1cc(-c2ncc3c(n2)CCN(C[C@H](C)CC(=O)O)C3)ccc1OCc1ccccc1` [Compound 319, (R)-4-(2-(4-(benzyloxy)-3-methylphenyl)-7,8-dihydropyrido[4,3-d]pyrimidin-6(5H)-yl)-3-methylbutanoic acid], the negative logarithm of the EC50 (pEC50) on human S1PR1 receptor was under 6.00; at human S1PR4 receptor it was under 6.00; at human S1PR5 receptor it was 6.00 to 7.00.

For `Cc1cc(-c2ncc3c(n2)CCN(CC(C)CC(=O)O)C3)ccc1OCc1ccccc1Cl` (stereo not drawn) [Compound 262, 4-(2-(4-((2-chlorobenzyl)oxy)-3-methylphenyl)-7,8-dihydropyrido[4,3-d]pyrimidin-6(5H)-yl)-3-methylbutanoic acid], the negative-log EC50 (pEC50) on human S1PR1 receptor is under 6.00; on human S1PR4 receptor, under 6.00; at human S1PR5 receptor it was 7.00 to 8.00.

As for `Cc1ccc(COc2ccc(-c3ncc4c(n3)CCN(CC(C)CC(=O)O)C4)cc2C)cc1` (stereo not drawn) [Compound 301, 3-methyl-4-[2-[3-methyl-4-(p-tolylmethoxy)phenyl]-7,8-dihydro-5H-pyrido[4,3-d]pyrimidin-6-yl]butanoic acid 2,2,2-trifluoroacetic acid salt], the pEC50 was under 6.00 on human S1PR1 receptor, under 6.00 at human S1PR4 receptor and 6.00 to 7.00 at human S1PR5 receptor.

On to `Cc1cc(-c2ncc3c(n2)CCN(CC(C)CC(=O)O)C3)ccc1OCc1ccc(F)cc1` (stereo not drawn) [Compound 269, 4-[2-[4-[(4-fluorophenyl)methoxy]-3-methyl-phenyl]-7,8-dihydro-5H-pyrido[4,3-d]pyrimidin-6-yl]-3-methyl-butanoic acid 2,2,2-trifluoroacetic acid salt], for which the pEC50 on human S1PR1 receptor was under 6.00; at human S1PR4 receptor, under 6.00; on human S1PR5 receptor it was 7.00 to 8.00.

For `CC(C(=O)O)N1CCc2nc(-c3ccc(OCc4ccccc4)cc3)ncc2C1` (stereo not drawn) [Compound 322, 2-(2-(4-(benzyloxy)phenyl)-7,8-dihydropyrido[4,3-d]pyrimidin-6(5H)-yl)propanoic acid], the negative logarithm of the EC50 (pEC50) on human S1PR1 receptor is under 6.00; at human S1PR4 receptor, under 6.00; on human S1PR5 receptor, 5.00 to 6.00.

As to `Cc1cccc(COc2ccc(-c3ncc4c(n3)CCN(CC(C)CC(=O)O)C4)c(F)c2)c1` (stereo not drawn) [Compound 264, 4-[2-[2-fluoro-4-(m-tolylmethoxy)phenyl]-7,8-dihydro-5H-pyrido[4,3-d]pyrimidin-6-yl]-3-methyl-butanoic acid 2,2,2-trifluoroacetic acid salt], the negative-log EC50 (pEC50) at human S1PR1 receptor was under 6.00; on human S1PR4 receptor it was under 6.00; on human S1PR5 receptor, 7.00 to 8.00.

For `Cc1cc(-c2ncc3c(n2)CCN(CC(C)CC(=O)O)C3)ccc1OCc1cccc(C(F)(F)F)c1` (stereo not drawn) [Compound 302, 3-methyl-4-[2-[3-methyl-4-[[3-(trifluoromethyl)phenyl]methoxy]phenyl]-7,8-dihydro-5H-pyrido[4,3-d]pyrimidin-6-yl]butanoic acid 2,2,2-trifluoroacetic acid salt], the negative-log EC50 (pEC50) is under 6.00 at human S1PR1 receptor, under 6.00 at human S1PR4 receptor and 6.00 to 7.00 on human S1PR5 receptor.

On to `O=C(O)C1(CCN2CCc3nc(-c4ccc(OCc5ccc(Cl)cc5)cc4)ncc3C2)CC1` [Compound 335, 1-(2-(2-(4-((4-chlorobenzyl)oxy)phenyl)-7,8-dihydropyrido[4,3-d]pyrimidin-6(5H)-yl)ethyl)cyclopropanecarboxylic acid], for which the pEC50 at human S1PR1 receptor is under 6.00; on human S1PR4 receptor, under 6.00; on human S1PR5 receptor, 6.00 to 7.00.

Take `CC(CC(=O)O)CN1CCc2nc(-c3ccc(CCc4cccc(Cl)c4)cc3F)ncc2C1` (stereo not drawn) [Compound 292, 4-(2-(4-(3-chlorophenethyl)-2-fluorophenyl)-7,8-dihydropyrido[4,3-d]pyrimidin-6(5H)-yl)-3-methylbutanoic acid]: the values for the pEC50 on human S1PR1 receptor, at human S1PR4 receptor and at human S1PR5 receptor were under 6.00, under 6.00 and 6.00 to 7.00, respectively.

As to `CC(CC(=O)O)CN1CCc2nc(-c3ccc(OCc4ccc(F)cc4)cc3F)ncc2C1` (stereo not drawn) [Compound 298, 4-[2-[2-fluoro-4-[(4-fluorophenyl)methoxy]phenyl]-7,8-dihydro-5H-pyrido[4,3-d]pyrimidin-6-yl]-3-methyl-butanoic acid 2,2,2-trifluoroacetic acid salt], the negative logarithm of the EC50 (pEC50) was under 6.00 on human S1PR1 receptor, under 6.00 at human S1PR4 receptor and 6.00 to 7.00 at human S1PR5 receptor.

For the compound `CC(C(=O)O)N1CCc2nc(-c3ccc(OCc4cccc(Cl)c4)cc3)ncc2C1` (stereo not drawn) [Compound 317, 2-(2-(4-((3-chlorobenzyl)oxy)phenyl)-7,8-dihydropyrido[4,3-d]pyrimidin-6(5H)-yl)propanoic acid], the pEC50 on human S1PR1 receptor was under 6.00; on human S1PR4 receptor it was under 6.00; at human S1PR5 receptor, 6.00 to 7.00.

As to `CCc1cccc(Cl)c1COc1nc2c(cc1F)CN(C1CC(C(=O)O)C1)CC2` (stereo not drawn) [Compound 183, 3-(2-((2-chloro-6-ethylbenzyl)oxy)-3-fluoro-7,8-dihydro-1,6-naphthyridin-6(5H)-yl)cyclobutanecarboxylic acid], the pEC50 at human S1PR1 receptor was under 6.00; at human S1PR4 receptor it was under 6.00; on human S1PR5 receptor it was 6.00 to 7.00.

For the compound `O=C(O)CN1CCc2nc(Cc3c(F)cccc3F)ncc2C1` [Compound 26, 2-(2-(2,6-difluorobenzyl)-7,8-dihydropyrido[4,3-d]pyrimidin-6(5H)-yl)acetic acid], the negative-log EC50 (pEC50) is under 6.00 at human S1PR1 receptor, under 6.00 at human S1PR4 receptor and 5.00 to 6.00 on human S1PR5 receptor.

On to `Cc1cc(-c2ncc3c(n2)CCN(CC(C)CC(=O)O)C3)ccc1OCc1cccc(C)c1C` (stereo not drawn) [Compound 300, 4-[2-[4-[(2,3-dimethylphenyl)methoxy]-3-methyl-phenyl]-7,8-dihydro-5H-pyrido[4,3-d]pyrimidin-6-yl]-3-methyl-butanoic acid 2,2,2-trifluoroacetic acid salt], for which the pEC50 at human S1PR1 receptor is under 6.00; on human S1PR4 receptor, under 6.00; on human S1PR5 receptor it was 6.00 to 7.00.
